Here are results for one compound from patent US20130323303A1, “DRUG CARRIER AND PREPARATION METHOD THEREOF” (NATIONAL CHIAO TUNG UNIVERSITY, priority 2012, published 2013).

For this assay, the system named is tumor (transplanted cancer cells carrying fluorescent gene). The experiment in a line: Animal tumor model, tumor size recorded via in vivo imaging system (IVIS). The settings on record: mouse model, after 28 days of drug treatment. The protocol: Under the in vivo experiment of animal tumor model, first a mouse model treated with doxorubucin was prepared as the control group, and another mouse model treated with the oral drug carrier containing doxorubucin was prepared as the experimental group. After drug treatment, the mouse models were recorded the variation of tumor size via in vivo imaging system (IVIS) (because of the mice transplanted with the cancer cells carrying fluorescent gene).
FIG. 6A and 6B are […] of the experimental group that the mouse model was treated with drug at 0 day and after 28 days. The tumor size of the mouse model in the experimental group was 65% compared to before treatment. FIG. 6C and 6D are IVIS photos of the control group that the mouse model was treated with drug at 0 day and after 28 days. […] FIG. 7 is a variation graph in fluorescence values of tumor cells tested by IVIS, and the tumor cells were from the above mouse model treated with drug.

Consider `COc1cccc2c1C(=O)c1c(O)c3c(c(O)c1C2=O)C[C@@](O)(C(=O)CO)C[C@@H]3O[C@H]1C[C@H](N)[C@H](O)[C@H](C)O1` [doxorubucin, doxorubicin], for which the “tumor size compared to before treatment” value is given as 200%.
